{"source": "patent US20070213393A1", "about": "“COMPOSITIONS AND METHODS FOR TREATING INFLAMMATORY CONDITIONS UTILIZING PROTEIN OR POLYSACCHARIDE CONTAINING ANTI-MICROTUBULE AGENTS” (ANGIOTECH INTERNATIONAL AG, priority 2001, published 2007)", "key": {"[1]": {"experiment": "Compatibility of co-solvent carrier with hyaluronic acid hydrogel (visually observed turbidity)", "format": "physicochemical", "details": "solvent added in 200 μl aliquots to 2 ml gel of 20 mg/ml hyaluronic acid in water; maximum added 5 ml", "method": "Co-solvent systems were prepared by the addition of water miscible organic solvents to a hyaluronic acid (HA) gel containing 20 mg/ml hyaluronic acid in water. The organic solvent was added with stirring in aliquots of 200 μl. After the addition of each aliquot, the mixture was allowed to stir for several minutes and observed for signs of turbidity or rapidly changing viscosity. At the first sign of visually observed turbidity, the volume of organic solvent added was noted and the ratio of co-solvent to water calculated. In the event that turbidity was not observed the maximum amount of solvent added was 5 ml to 2 ml of gel."}, "physchem": {"experiment": "physchem", "details": "aqueous with cosolvent or surfactant or cyclodextrin, thermodynamic from solid", "method": "After determining suitability in this manner, co-solvent systems may be further assessed in terms of biocompatibility. Solubility was determined as follows:\nTo a 1 ml aliquot of a co-solvent system described by the ratio of organic solvent to water was added precisely to 5 and 10 mg±10% paclitaxel. The mixtures were equilibrated at room temperature for 16 hours and observed for clarity and particulates in the liquid."}, "synoviocytes": {"test_system": "synoviocytes", "details": "cited from earlier work"}, "T-cell": {"test_system": "T-cell", "details": "cited from earlier work"}, "[2]": {"test_system": "normal chondrocytes and non-proliferating synoviocytes", "details": "cited from earlier work"}, "AP-1": {"test_system": "AP-1", "details": "via reduced AP-1 binding to DNA; cited from earlier work"}, "[3]": {"test_system": "collagen induced arthritis in an animal model", "details": "cited from earlier work"}, "neutrophil": {"test_system": "neutrophil", "details": "cited from earlier work"}}}
{"smiles": "CN1CCCC1=O", "note": "[N-methylpyrrolidone]", "values": [{"measurement": "Max. amt. added to HA Gel without turbidity", "setting": "[1]", "result": ">5", "unit": "ml in 2 ml"}]}
{"smiles": "CCO", "note": "[Ethanol]", "values": [{"measurement": "Max. amt. added to HA Gel without turbidity", "setting": "[1]", "result": 4, "unit": "ml in 2 ml"}]}
{"smiles": "CCOCCOCCO", "note": "[Ethoxydiglycol]", "values": [{"measurement": "Max. amt. added to HA Gel without turbidity", "setting": "[1]", "result": 2, "unit": "ml in 2 ml"}]}
{"smiles": "CC(=O)O[C@H]1C(=O)[C@@]2(C)[C@H]([C@H](OC(=O)c3ccccc3)[C@]3(O)C[C@H](OC(=O)[C@H](O)[C@@H](NC(=O)c4ccccc4)c4ccccc4)C(C)=C1C3(C)C)[C@]1(OC(C)=O)CO[C@@H]1C[C@@H]2O", "note": "[paclitaxel]", "values": [{"measurement": "solubility at 16 h", "setting": "physchem; Dimethylsulfoxide:water co-solvent mixture", "result": "< 5000", "unit": "µg/mL"}, {"measurement": "solubility at 16 h", "setting": "physchem; Ethanol:water co-solvent mixture", "result": "5000 to 10000", "unit": "µg/mL"}, {"measurement": "solubility at 16 h", "setting": "physchem; Ethoxydiglycol:water co-solvent mixture", "result": "< 5000", "unit": "µg/mL"}, {"measurement": "solubility at 16 h", "setting": "physchem; N-methylpyrrolidone:water co-solvent mixture", "result": "> 10000", "unit": "µg/mL"}, {"measurement": "solubility at 16 h", "setting": "physchem; PEG 200:water co-solvent mixture", "result": "5000 to 10000", "unit": "µg/mL"}, {"measurement": "apoptosis in synoviocytes", "setting": "synoviocytes", "result": "induces"}, {"measurement": "proliferation of synoviocytes", "setting": "synoviocytes", "result": "prevents"}, {"measurement": "T-cell function", "setting": "T-cell", "result": "inhibits"}, {"measurement": "T-cell response to stimuli", "setting": "T-cell", "result": "decreases"}, {"measurement": "toxicity to non-proliferating cells", "setting": "[2]", "result": "non-toxic"}, {"measurement": "AP-1 transcription activity", "setting": "AP-1", "result": "inhibits"}, {"measurement": "collagen induced arthritis", "setting": "[3]", "result": "inhibits"}, {"measurement": "neutrophil activation", "setting": "neutrophil", "result": "inhibits"}]}
{"smiles": "C[S+](C)[O-]", "note": "[Dimethylsulfoxide]", "values": [{"measurement": "Max. amt. added to HA Gel without turbidity", "setting": "[1]", "result": ">5", "unit": "ml in 2 ml"}]}
